# How the values were obtained:
# rape = assay: Test B pre/postemergence rape; type: in vivo, Brassica napus
# How it was run: (§1)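 Herbicidal effect was estimated by eye on a ten-point control scale after plants spent twelve to sixteen days in a greenhouse following soil or foliar treatment. Foliar sprays targeted plants at one to four leaves; all doses were formulated in a non-phytotoxic solvent with surfactant.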
# blackgrass = assay: Test B pre/postemergence blackgrass; type: in vivo, Alopecurus myosuroides
# How it was run: as §1
# wild oat = assay: Test B pre/postemergence wild oat; type: in vivo, Avena fatua
# How it was run: as §1
# pigweed = assay: Test B pre/postemergence pigweed; type: in vivo, Amaranthus retroflexus
# How it was run: as §1
# surinam grass = assay: Test B pre/postemergence surinam grass; type: in vivo, Brachiaria decumbens
# How it was run: as §1
# duck salad = assay: Test B flood test duck salad; type: in vivo, Heteranthera limosa
# How it was run: (§2)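 Read-out is a visual response score from 0 (no effect) to 10 (complete control), assigned by comparison with untreated controls. Treatment was applied at the 2-leaf stage, and plants stayed in the greenhouse for twelve to sixteen days before scoring.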
# velvetleaf = assay: Test B pre/postemergence velvetleaf; type: in vivo, Abutilon theophrasti
# How it was run: as §1
# smallflower flatsedge = assay: Test B flood test smallflower flatsedge; type: in vivo, Cyperus difformis
# How it was run: as §2
# sugar beet = assay: Test B pre/postemergence sugar beet; type: in vivo, Beta vulgaris
# How it was run: as §1
# bedstraw = assay: Test B pre/postemergence bedstraw; type: in vivo, Galium aparine
# How it was run: as §1
# soybean = assay: Test B pre/postemergence soybean; type: in vivo, Glycine max
# How it was run: as §1
# crabgrass = assay: Test B pre/postemergence crabgrass; type: in vivo, Digitaria sanguinalis
# How it was run: as §1
# purple nutsedge = assay: Test B pre/postemergence purple nutsedge; type: in vivo, Cyperus rotundus; conditions: Postemergence
# How it was run: as §1
# corn = assay: Test B pre/postemergence corn; type: in vivo, Zea mays
# How it was run: as §1
# wheat = assay: Test B pre/postemergence wheat; type: in vivo, Triticum aestivum
# How it was run: as §1
# rice = assay: Test B flood test rice; type: in vivo, Oryza sativa
# How it was run: as §2
# [1] = Preemergence, Rate 62 g/ha, scale of 0 to 10 where 0 is no effect and 10 is complete control
# [2] = Preemergence, Rate 125 g/ha, 0 is no effect, 10 is complete control
# [3] = Preemergence, Rate 250 g/ha, scale 0 to 10, 0 is no effect, 10 is complete control
# [4] = Preemergence, Rate 500 g/ha, scale of 0 to 10 where 0 is no effect and 10 is complete control
# [5] = Rate 62 g/ha, Postemergence, scale of 0 to 10 where 0 is no effect and 10 is complete control
# [6] = Rate 125 g/ha, Postemergence, scale 0 to 10
# [7] = Rate 500 g/ha, Postemergence, scale 0 to 10
# [8] = Rate 62 g/ha, headed Pre-emergence (flood test species), scale 0 to 10 (0 no effect, 10 complete control)
# [9] = Rate 125 g/ha, Pre-emergence, flood test species, scale 0 to 10 where 0 is no effect and 10 is complete control
# [10] = Rate 250 g/ha, Pre-emergence, flood-test species, scale 0 to 10, 0 is no effect, 10 is complete control
# [11] = Rate 500 g/ha, headed Pre-emergence (flood test species), scale 0 to 10 (0 no effect, 10 complete control)
compound,measurement,setting,value
Cc1ccccc1-n1c(=O)on(C(=O)N(c2ccc(Cl)cc2F)C(C)C)c1=O [Compound 195],Rape plant response rating,rape; [1],0
same,Rape plant response rating (0 to 10 scale),rape; [2],0
same,Rape plant response rating,rape; [3],0
same,"Plant response rating, Rape",rape; [4],0
same,Rape plant response rating,rape; [5],0
same,Rape plant response rating,rape; [6],0
same,"Plant response rating (0 to 10; 0 is no effect, 10 is complete control), Rape","rape; Rate 250 g/ha, Postemergence",0
same,Rape plant response rating,rape; [7],0
same,Blackgrass plant response rating,blackgrass; [1],0
same,Blackgrass plant response rating (0 to 10 scale),blackgrass; [2],1
same,Blackgrass plant response rating,blackgrass; [3],3
same,"Plant response rating, Blackgrass",blackgrass; [4],6
same,Blackgrass plant response rating,blackgrass; [5],0
same,Blackgrass plant response rating,blackgrass; [6],3
same,"Plant response rating (0 to 10; 0 is no effect, 10 is complete control), Blackgrass","blackgrass; Rate 250 g/ha, Postemergence",5
same,Blackgrass plant response rating,blackgrass; [7],6
same,Wild oats plant response rating,wild oat; [1],0
same,Wild oats plant response rating,wild oat; [3],0
same,"Plant response rating, Wild oats",wild oat; [4],4
same,Wild oats plant response rating,wild oat; [5],0
same,Wild oats plant response rating,wild oat; [6],0
same,"Plant response rating (0 to 10; 0 is no effect, 10 is complete control), Wild oats","wild oat; Rate 250 g/ha, Postemergence",0
same,Redroot pigweed plant response rating,pigweed; [1],0
same,Redroot pigweed plant response rating (0 to 10 scale),pigweed; [2],0
same,Redroot pigweed plant response rating,pigweed; [3],0
same,"Plant response rating, Redroot pigweed",pigweed; [4],0
same,Redroot pigweed plant response rating,pigweed; [5],0
same,Redroot pigweed plant response rating,pigweed; [6],0
same,"Plant response rating (0 to 10; 0 is no effect, 10 is complete control), Redroot pigweed","pigweed; Rate 250 g/ha, Postemergence",2
same,Redroot pigweed plant response rating,pigweed; [7],4
same,B. signalgrass plant response rating,surinam grass; [1],0
same,B. signalgrass plant response rating (0 to 10 scale),surinam grass; [2],0
same,B. signalgrass plant response rating,surinam grass; [3],1
same,"Plant response rating, B. signalgrass",surinam grass; [4],6
same,B. signalgrass plant response rating,surinam grass; [5],0
same,B. signalgrass plant response rating,"surinam grass; Rate 125 g/ha, Postemergence, scale 0 (no effect) to 10 (complete control)",0
same,"Plant response rating, B. signalgrass","surinam grass; Rate 250 g/ha, Postemergence, scale 0 to 10, 0 is no effect, 10 is complete control",0
same,B. signalgrass plant response rating,"surinam grass; Rate 500 g/ha, Postemergence, scale 0 to 10, 0 no effect, 10 complete control",1
same,Ducksalad plant response rating,duck salad; [8],0
same,Ducksalad plant response rating,duck salad; [9],0
same,Ducksalad plant response rating,duck salad; [10],0
same,"Plant response rating, Ducksalad",duck salad; [11],0
same,Velvetleaf plant response rating,velvetleaf; [1],0
same,Velvetleaf plant response rating,velvetleaf; [3],0
same,"Plant response rating, Velvetleaf",velvetleaf; [4],0
same,Velvetleaf plant response rating,velvetleaf; [5],0
same,Velvetleaf plant response rating,velvetleaf; [6],0
same,"Plant response rating (0 to 10; 0 is no effect, 10 is complete control), Velvetleaf","velvetleaf; Rate 250 g/ha, Postemergence",2
same,S. Flatsedge plant response rating,smallflower flatsedge; [8],0
same,S. Flatsedge plant response rating,smallflower flatsedge; [9],0
same,S. Flatsedge plant response rating,smallflower flatsedge; [10],0
same,S. Flatsedge plant response rating,"smallflower flatsedge; Rate 500 g/ha, Pre-emergence, flood test species, scale 0 to 10 (0 no effect, 10 complete control)",0
same,Sugarbeets plant response rating,sugar beet; [1],0
same,Sugarbeets plant response rating (0 to 10 scale),sugar beet; [2],0
same,Sugarbeets plant response rating,sugar beet; [3],0
same,"Plant response rating, Sugarbeets",sugar beet; [4],2
same,Sugarbeets plant response rating,sugar beet; [5],0
same,Sugarbeets plant response rating,sugar beet; [6],0
same,"Plant response rating (0 to 10; 0 is no effect, 10 is complete control), Sugarbeets","sugar beet; Rate 250 g/ha, Postemergence",0
same,Sugarbeets plant response rating,sugar beet; [7],2
same,Bedstraw plant response rating,bedstraw; [1],0
same,Bedstraw plant response rating (0 to 10 scale),bedstraw; [2],0
same,Bedstraw plant response rating,bedstraw; [3],0
same,"Plant response rating, Bedstraw",bedstraw; [4],2
same,Bedstraw plant response rating,bedstraw; [5],2
same,Bedstraw plant response rating,bedstraw; [6],2
same,Bedstraw plant response rating,bedstraw; [7],7
same,Soybean plant response rating,soybean; [1],0
same,Soybean plant response rating (0 to 10 scale),soybean; [2],0
same,Soybean plant response rating,soybean; [3],0
same,"Plant response rating, Soybean",soybean; [4],0
same,Soybean plant response rating,soybean; [5],2
same,Soybean plant response rating,soybean; [6],3
same,"Plant response rating (0 to 10; 0 is no effect, 10 is complete control), Soybean","soybean; Rate 250 g/ha, Postemergence",4
same,Soybean plant response rating,soybean; [7],5
same,Crabgrass plant response rating,crabgrass; [1],3
same,Crabgrass plant response rating (0 to 10 scale),crabgrass; [2],4
same,Crabgrass plant response rating,crabgrass; [3],5
same,"Plant response rating, Crabgrass",crabgrass; [4],9
same,Crabgrass plant response rating,crabgrass; [5],0
same,Crabgrass plant response rating,crabgrass; [6],0
same,"Plant response rating (0 to 10; 0 is no effect, 10 is complete control), Crabgrass","crabgrass; Rate 250 g/ha, Postemergence",2
same,Crabgrass plant response rating,crabgrass; [7],5
same,Nutsedge plant response rating,"purple nutsedge; Rate 62 g/ha, scale of 0 to 10 where 0 is no effect and 10 is complete control",0
same,Nutsedge plant response rating,"purple nutsedge; Rate 125 g/ha, scale 0 to 10",0
same,"Plant response rating (0 to 10; 0 is no effect, 10 is complete control), Nutsedge",purple nutsedge; Rate 250 g/ha,0
same,Nutsedge plant response rating,"purple nutsedge; Rate 500 g/ha, scale 0 to 10",0
same,Corn plant response rating,corn; [1],0
same,Corn plant response rating (0 to 10 scale),corn; [2],0
same,Corn plant response rating,corn; [3],0
same,"Plant response rating, Corn",corn; [4],0
same,Corn plant response rating,corn; [5],0
same,Corn plant response rating,corn; [6],0
same,"Plant response rating (0 to 10; 0 is no effect, 10 is complete control), Corn","corn; Rate 250 g/ha, Postemergence",0
same,Corn plant response rating,corn; [7],0
same,Wheat plant response rating,wheat; [1],0
same,Wheat plant response rating,wheat; [3],0
same,"Plant response rating, Wheat",wheat; [4],0
same,Wheat plant response rating,wheat; [5],0
same,Wheat plant response rating,wheat; [6],0
same,"Plant response rating (0 to 10; 0 is no effect, 10 is complete control), Wheat","wheat; Rate 250 g/ha, Postemergence",0
same,Rice plant response rating,rice; [8],0
same,Rice plant response rating,rice; [9],0
same,Rice plant response rating,rice; [10],0
same,"Plant response rating, Rice",rice; [11],0
